Test results as given in BindingDB's records for patent US10167299 (Shanghai Institute of Material Medica, Chinese Academy of …, 2019).

Target: C-C chemokine receptor type 5 (Homo sapiens, UniProt P51681)
Experiment: Calcium Flux Inhibition Experiment
Procedure: 1. […] The medium in each well into which cells were innoculated was removed and 40 μl/well of freshly prepared dye was added. […] The dye was removed. […] FlexStation II was used for detection.

Chain of C-C chemokine receptor type 5 (P51681 whole entry): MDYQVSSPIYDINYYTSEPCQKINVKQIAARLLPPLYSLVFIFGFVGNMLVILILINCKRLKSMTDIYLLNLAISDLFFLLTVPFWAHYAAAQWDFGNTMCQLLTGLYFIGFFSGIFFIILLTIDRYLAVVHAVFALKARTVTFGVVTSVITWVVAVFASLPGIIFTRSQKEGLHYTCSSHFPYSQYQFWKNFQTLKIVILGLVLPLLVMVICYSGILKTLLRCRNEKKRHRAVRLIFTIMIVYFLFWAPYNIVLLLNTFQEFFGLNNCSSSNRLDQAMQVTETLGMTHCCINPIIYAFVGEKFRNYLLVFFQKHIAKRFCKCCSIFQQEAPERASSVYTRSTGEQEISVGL

## CC(=O)N[C@@H](CCN1C2CCC1CC(n1c(C)nnc1C(C)C)C2)c1csc2ccccc12 (stereo partly specified) [US10167299, Example 28]
  IC50: 68 nM
